# In patent US20150359866A1, “TREATMENT OF CERVICAL AND RELATED […] TOPICAL IMMUNOMODULATORS” (THE JOHNS HOPKINS UNIVERSITY, priority 2014, published 2015):
# Test system: CIN2/3 lesions associated with HPV genotypes other than HPV16
# Assay: Clinical trial of topical imiquimod on CIN 2/3 lesions (lesion regression)
# Type: in vivo, human
# Source text: Treatment protocol. In an embodiment, patients are screened at their initial colposcopic evaluation for referral for evaluation of high grade pap smears. Immunocomptetent patients with biopsy-confirmed CIN2/3 which is HPV16 negative will be eligible for enrollment. Both treatment and control groups will be assessed for histologic diagnosis at week 15, change in cervical quantitative HPV viral load, safety, toxicity, tolerability, and for measures of local mucosal immune responses. Patients will be given imiquimod (5%) or vehicle at Day 0, week 4, and week 8 and then histological diagnosis is determined at week 15.
# Imiquimod administration on the lesion at each vaccination. In an embodiment, patients received a total of three applications of imiquimod directly on the cervical lesion, one application at the time of each vaccination. One single use packet containing 250 mg of 5% imiquimod was used for each treatment. After insertion of a vaginal speculum, the cream is applied directly to the lesion by the PI, using a cotton-tipped applicator. The speculum is withdrawn, and a tampon is placed as a medication barrier. Patients will be instructed to leave the tampon in place for about 4 to 6, and no more than 10 hours. […]
# Clinical trial results. […] Subjects were monitored for mucosal irritation. […]
smiles,measurement,setting,value
"CC(C)Cn1cnc2c(N)nc3ccccc3c21 [imiquimod, 1-(2-methylpropyl)-1H-imidazo[4,5-c]quinolin-4-amine]",rate of regression relative to untreated HPV16-negative CIN2/3 patients,"FIG. 4, untreated rate in same timeframe 30-40%",nearly double
same,rate of regression of CIN2/3 lesions,"HPV16-negative subjects, 12.5 mg imiquimod in 250 mg cream applied to the cervical lesion three times at four-week intervals, assessed eight weeks after third application, 10/16 subjects",62.5%
